From patent publication US8546320B2, “Hsp9O-targeted anti-cancer chimeric peptide” (Kyoto University, priority 2008, dated 2013)
Where two headings read alike, the source gives them in different places. Where a SMILES comes first, the peptide text is derived from it.

Experiments:
[1] = molecular target: T1, interaction between Hsp90 and the Hop's TPR2A domain (Homo sapiens, UniProt P07900); assay: BIACORE competition: Hsp90 pre-mixed with peptide, added to immobilized TPR2A; format: binding; conditions: increasing peptide concentration
T1 construct: histidine tag; made in house; host or cells: Hsp90: E. coli BL21 (pDEST17-Hsp90)
From the text: It was examined whether the TPR peptide designed could compete specifically with the interaction between Hsp90, which is essential for the accurate folding of some carcinogenic protein including survivin in cancer cells, and the Hop's TPR2A domain.

Caki-1 [2] = format: cell-based, human; conditions: Caki-1, 68 μM
Experimental: The TPR peptide or the TPR scramble peptide was mixed with a commercially available transfection reagent (Profect-P2 or, Lipofectamine LTX) and the mixture was left to incubate at room temperature for 20 minutes, to form liposome before the complex was added to cancer cells (Caki-1 (kidney cancer cells)); the survival rate of the cells was then measured by using WST-8 solution (Cell Count Reagent SF; Nacalai Tesque, Inc.) and the results were compared with those such as in the case of the TPR scramble peptide or the liposome alone.

U937 = assay: cells; format: cell-based, human; conditions: for IC50: U-937, Human AML cells U937, averages of two independent experiments, read-out: Anti-tumor activity, IC50; for Anti-cancer activity (% relative to wild-type peptide) / Decrease in cell survival rate (% relative to wild-type peptide): wild-type peptide = 100%
Experimental: (§1) A total of 3×10^3 cells per well were inoculated onto a 96 well plate, and incubated in a medium containing 10% FBS with 100 μl of a peptide diluted stepwise at 37° C. for 48 to 72 hours. The survival rate of the cells was measured by using WST-8 solution (Cell Count Reagent SF; Nacalai Tesque, Inc.).

THP-1 = assay: cells; format: cell-based, human; conditions: for IC50: Human AML cells THP-1, averages of two independent experiments, read-out: Anti-tumor activity, IC50
Experimental: as §1

K562 = assay: cells; format: cell-based, human; conditions: for IC50: Human AML cells K562, averages of two independent experiments, read-out: Anti-tumor activity, IC50
Experimental: as §1

HL-60 = assay: cells; format: cell-based, human; conditions: for IC50: Human AML cells HL-60, averages of two independent experiments, read-out: Anti-tumor activity, IC50
Experimental: as §1

[3] = test system: human normal pancreas epithelial cell strain (PE); assay: Cell viability assay (WST-8), PE; format: cell-based; conditions: Normal cells PE, averages of two independent experiments, read-out: Anti-tumor activity, IC50
Experimental: as §1

[4] = test system: human lung normal epithelial cell strain (WI38); assay: Cell viability assay (WST-8), WI38; format: cell-based; conditions: Normal cells W138, averages of two independent experiments, read-out: Anti-tumor activity, IC50
Experimental: as §1

HEK293 = assay: cells; format: cell-based, human; conditions: Homo sapiens, HEK293; Normal cells HEK; averages of two independent experiments; read-out: Anti-tumor activity, IC50
Experimental: (§2) A total of 3×10^3 cells were inoculated per well on a 96 well plate and cultured in a medium containing 10% FBS for 24 hours, and incubated with 100 μl of a peptide having a gradual increase in concentration at 37° C. for 48 to 72 hours. The survival rate of the cells was measured by using WST-8 solution (Cell Count Reagent SF; Nacalai Tesque, Inc.).
as §1

cancer cells = assay: Cell viability assay, summary statements on cancer cells; format: cell-based; conditions: single mutation in TPR or Antp region of Antp-TPR
Caki-1 [5] = format: cell-based, human; conditions: Caki-1; for Anti-cancer activity (% relative to wild-type peptide) / Decrease in cell survival rate (% relative to wild-type peptide): wild-type peptide = 100%
T47D = format: cell-based, human; conditions: T47D
Experimental: as §2

BXPC-3 = format: cell-based, human

CC[C@H](C)[C@H](NC(=O)[C@H](C)NC(=O)[C@H](C)NC(=O)[C@H](CO)NC(=O)[C@H](Cc1ccccc1)NC(=O)[C@H](CCCCN)NC(=O)[C@@H](N)CCCNC(=N)N)C(=O)NCC(=O)N[C@@H](Cc1ccc(O)cc1)C(=O)N[C@@H](CC(N)=O)C(=O)N[C@@H](CCCCN)C(=O)N[C@@H](Cc1ccc(O)cc1)C(=O)O [TPR scramble, reference compound] (H-RKFSAAIGYNKY-OH; N-terminus and C-terminus assumed)
inhibition of the interaction between Hsp90 and TPR2A [1]: does not inhibit the interaction completely | killing effect after introduction with transfection reagent (Caki-1 [2]): not observed

C=CCNC1=C2C[C@@H](C)C[C@H](OC)[C@H](O)[C@@H](C)/C=C(\C)[C@H](OC(N)=O)[C@@H](OC)/C=C\C=C(/C)C(=O)NC(=CC1=O)C2=O [Peptide 17-AAG, 17-allylaminogeldanamycin]
Cell Survival Rate (%) (U937; U937, 1.25 μM): 5.21% | Cell Survival Rate (%) (U937; U937, 2.5 μM): 4.03% | Cell Survival Rate (%) (U937; U937, 5 μM): 4.97% | Cell Survival Rate (%) (U937; U937, 10 μM): 4.16% | IC50 (U937): 700 nM | IC50 (THP-1): 750 nM | Cell Survival Rate (%) (THP-1; THP-1, 1.25 μM): 6.80% | Cell Survival Rate (%) (THP-1; THP-1, 2.5 μM): 5.49% | Cell Survival Rate (%) (THP-1; THP-1, 5 μM): 6.56% | Cell Survival Rate (%) (THP-1; THP-1, 10 μM): 7.76% | IC50 (K562): 700 nM | Cell Survival Rate (%) (K562; K562, 1.25 μM): 5.67% | Cell Survival Rate (%) (K562; K562, 2.5 μM): 5.08% | Cell Survival Rate (%) (K562; K562, 5 μM): 5.67% | Cell Survival Rate (%) (K562; K562, 10 μM): 6.35% | Cell Survival Rate (%) (HL-60; HL-60, 1.25 μM): 37.03% | Cell Survival Rate (%) (HL-60; HL-60, 2.5 μM): 19.70% | Cell Survival Rate (%) (HL-60; HL-60, 5 μM): 8.37% | Cell Survival Rate (%) (HL-60; HL-60, 10 μM): 3.87% | IC50 (HL-60): 1050 nM | IC50 [3]: 800 nM | IC50 [4]: 700 nM | IC50 (HEK293): 700 nM

TPR mutant 1: TPR mutant 1 peptide without Antp, SEQ ID No. 70; sequence not printed in the text (KAYAAAGNSYTFK; TPR mutant 1)
inhibition of the interaction between Hsp90 and TPR2A [1]: does not inhibit the interaction completely

CC[C@H](C)[C@H](NC(=O)[C@H](CCCNC(=N)N)NC(=O)CNC(=O)[C@H](Cc1ccc(O)cc1)NC(=O)[C@H](C)NC(=O)[C@H](CCCCN)NC(=O)[C@H](CCCCN)NC(=O)[C@H](CCCCN)NC(=O)[C@H](Cc1c[nH]c2ccccc12)NC(=O)[C@H](CCCCN)NC(=O)[C@H](CCSC)NC(=O)[C@H](CCCNC(=N)N)NC(=O)[C@H](CCCNC(=N)N)NC(=O)[C@H](CC(N)=O)NC(=O)[C@H](CCC(N)=O)NC(=O)[C@H](Cc1ccccc1)NC(=O)[C@H](Cc1c[nH]c2ccccc12)NC(=O)[C@@H](NC(=O)[C@H](CCCCN)NC(=O)[C@@H](NC(=O)[C@H](CCC(N)=O)NC(=O)[C@@H](N)CCCNC(=N)N)[C@@H](C)CC)[C@@H](C)CC)C(=O)NCC(=O)N[C@@H](CC(N)=O)C(=O)N[C@@H](CO)C(=O)N[C@@H](Cc1ccc(O)cc1)C(=O)N[C@@H](Cc1ccccc1)C(=O)N[C@@H](CCCCN)C(=O)O [Antp-A4G] (H-RQIKIWFQNRRMKWKKKAYGRIGNSYFK-OH; N-terminus and C-terminus assumed)
effect compared with the wild-type protein (summary of mutations) (cancer cells): effect higher than the wild-type protein | Cell Survival Rate (%) (U937): 11.42% | Anti-cancer activity (% relative to wild-type peptide) (U937; U937): 115.40% | Decrease in cell survival rate (% relative to wild-type peptide) (U937; U937): 203.46% | killing effect compared with the wild-type peptide (Caki-1 [5]): stronger than that of the wild-type peptide | Anti-cancer activity (% relative to wild-type peptide) (Caki-1 [5]): 108.40% | Decrease in cell survival rate (% relative to wild-type peptide) (Caki-1 [5]): 333.52%

CC[C@H](C)[C@H](NC(=O)[C@H](CCCNC(=N)N)NC(=O)[C@H](C)NC(=O)[C@H](Cc1ccc(O)cc1)NC(=O)[C@H](C)NC(=O)[C@H](CCCCN)NC(=O)[C@H](CCCCN)NC(=O)[C@H](CCCCN)NC(=O)[C@H](Cc1c[nH]c2ccccc12)NC(=O)[C@H](CCCCN)NC(=O)[C@H](CCSC)NC(=O)[C@H](CCCNC(=N)N)NC(=O)[C@H](CCCNC(=N)N)NC(=O)[C@H](CC(N)=O)NC(=O)[C@H](CCC(N)=O)NC(=O)[C@H](Cc1ccccc1)NC(=O)[C@H](Cc1c[nH]c2ccccc12)NC(=O)[C@@H](NC(=O)[C@H](CCCCN)NC(=O)[C@@H](NC(=O)[C@H](CCC(N)=O)NC(=O)[C@@H](N)CCCNC(=N)N)[C@@H](C)CC)[C@@H](C)CC)C(=O)N[C@@H](C)C(=O)N[C@@H](CC(N)=O)C(=O)N[C@@H](CO)C(=O)N[C@@H](Cc1ccc(O)cc1)C(=O)N[C@@H](Cc1ccccc1)C(=O)N[C@@H](CCCCN)C(=O)O [Antp-G7A] (H-RQIKIWFQNRRMKWKKKAYARIANSYFK-OH; N-terminus and C-terminus assumed)
effect compared with the wild-type protein (summary of mutations) (cancer cells): effect similar to that of the wild-type protein | Cell Survival Rate (%) (U937): 16.85% | killing effect compared with the wild-type peptide (U937; U937): increase in effect | Anti-cancer activity (% relative to wild-type peptide) (U937; U937): 108.32% | Decrease in cell survival rate (% relative to wild-type peptide) (U937; U937): 137.88% | Anti-cancer activity (% relative to wild-type peptide) (Caki-1 [5]): 96.23% | Decrease in cell survival rate (% relative to wild-type peptide) (Caki-1 [5]): 76.07%

CC[C@H](C)[C@H](NC(=O)[C@H](CCCNC(=N)N)NC(=O)[C@H](C)NC(=O)[C@H](Cc1ccc(O)cc1)NC(=O)[C@H](C)NC(=O)[C@H](CCCCN)NC(=O)[C@H](CCCNC(=N)N)NC(=O)[C@H](CCCNC(=N)N)NC(=O)[C@H](CCCNC(=N)N)NC(=O)[C@H](CCC(N)=O)NC(=O)[C@H](CCCNC(=N)N)NC(=O)[C@H](CCCNC(=N)N)NC(=O)[C@H](CCCCN)NC(=O)[C@H](CCCCN)NC(=O)[C@H](CCCNC(=N)N)NC(=O)CNC(=O)[C@@H](N)Cc1ccc(O)cc1)C(=O)NCC(=O)N[C@@H](CC(N)=O)C(=O)N[C@@H](CO)C(=O)N[C@@H](Cc1ccc(O)cc1)C(=O)N[C@@H](Cc1ccccc1)C(=O)N[C@@H](CCCCN)C(=O)O (H-YGRKKRRQRRRKAYARIGNSYFK-OH)
Cell Survival Rate (%) (T47D; 21 μM): 77.68% | Cell Survival Rate (%) (T47D; 42 μM): 58.60% | Cell Survival Rate (%) (T47D; 84 μM): 74.23% | Cell Survival Rate (%) (T47D; 168 μM): 17.92% | Cell Survival Rate (%) (BXPC-3; Bxpc3, 21 μM): 82.25% | Cell Survival Rate (%) (BXPC-3; Bxpc3, 42 μM): 73.08% | Cell Survival Rate (%) (BXPC-3; Bxpc3, 84 μM): 60.49% | Cell Survival Rate (%) (BXPC-3; Bxpc3, 168 μM): 47.24%

COC1=C2C[C@@H](C)C[C@H](OC)[C@H](O)[C@@H](C)/C=C(\C)[C@H](OC(N)=O)[C@@H](OC)/C=C\C=C(/C)C(=O)NC(=CC1=O)C2=O [Geldanamycin, geldanamycin]
Cell Survival Rate (%) (U937; U937, 1.25 μM): 5.40% | Cell Survival Rate (%) (U937; U937, 2.5 μM): 6.26% | Cell Survival Rate (%) (U937; U937, 5 μM): 4.65% | Cell Survival Rate (%) (U937; U937, 10 μM): 5.78% | IC50 (U937): 650 nM | IC50 (THP-1): 700 nM | Cell Survival Rate (%) (THP-1; THP-1, 1.25 μM): 6.20% | Cell Survival Rate (%) (THP-1; THP-1, 2.5 μM): 5.01% | Cell Survival Rate (%) (THP-1; THP-1, 5 μM): 4.49% | Cell Survival Rate (%) (THP-1; THP-1, 10 μM): 7.12% | IC50 (K562): 750 nM | Cell Survival Rate (%) (K562; K562, 1.25 μM): 20.08% | Cell Survival Rate (%) (K562; K562, 2.5 μM): 9.75% | Cell Survival Rate (%) (K562; K562, 5 μM): 7.07% | Cell Survival Rate (%) (K562; K562, 10 μM): 6.60% | Cell Survival Rate (%) (HL-60; HL-60, 1.25 μM): 6.65% | Cell Survival Rate (%) (HL-60; HL-60, 2.5 μM): 6.02% | Cell Survival Rate (%) (HL-60; HL-60, 5 μM): 5.03% | Cell Survival Rate (%) (HL-60; HL-60, 10 μM): 5.23% | IC50 (HL-60): 700 nM | IC50 [3]: 700 nM | IC50 [4]: 1000 nM | IC50 (HEK293): 700 nM
